The assay has as its system ALP in NHAC (normal human articular chondrocytes). Kind of assay: Alkaline Phosphatase (ALP) activity assay: ALP staining and quantitation in NHACs (prevention of chondrocyte hypertrophy). It counts as cell-based. To be noted: Chondrocyte, 288 h, human IL-1 beta 10 ng/mL, 12 days; for IC50: Fast Blue RR staining, high content imaging; for Emax: read-out: ALP in NHAC (% Efficacy). The gist of the method:
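NHACs were plated with test compound in DMEM containing 10% FBS, and human IL-1 beta was added 5 h later at 10 ng/mL final. Cultures were kept 12 days at 37° C, 5% CO2. Cells were then fixed, ALP-stained with Fast Blue RR/Naphthol AS-MX, and hypertrophic cells were imaged and quantified by high-content imaging.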

Each structure is given as a SMILES string.

Regarding `Cn1cc([C@@]23C[C@]2(C(=O)Nc2cc(C(F)(F)F)ccc2F)[C@H]2C[C@H](O)[C@@H]3O2)c(C(F)(F)F)n1` (racemic) [Example 57, rac-(1R,2R,4S,5R,6S)-N-(2-fluoro-5-(trifluoromethyl)phenyl)-6-hydroxy-4-(1-methyl-3-(trifluoromethyl)-1H-pyrazol-4-yl)-8-oxatricyclo[3.2.1.02,4]octane-2-carboxamide], the IC50 (in general, the concentration needed to halve the response being measured) is above 30 µM and the Emax was determined as 24%.
As for `Cn1cc([C@@]23C[C@]2(C(=O)Nc2ccc(Cl)c(C(F)(F)F)c2)[C@H]2C[C@H](O)[C@@H]3O2)c(C(F)(F)F)n1` (racemic) [Example 58, rac-(1R,2R,4S,5R,6S)—N-(4-chloro-3-(trifluoromethyl)phenyl)-6-hydroxy-4-(1-methyl-3-(trifluoromethyl)-1H-pyrazol-4-yl)-8-oxatricyclo[3.2.1.02,4]octane-2-carboxamide], the IC50 was above 30 µM and the Emax is 29%.
`Cn1cc([C@@]23C[C@]2(C(=O)Nc2cc(Cl)cc(C(F)(F)F)c2)[C@H]2C[C@H](O)[C@@H]3O2)c(C(F)(F)F)n1` (racemic) [Example 59, rac-(1R,2R,4S,5R,6S)-N-(3-chloro-5-(trifluoromethyl)phenyl)-6-hydroxy-4-(1-methyl-3-(trifluoromethyl)-1H-pyrazol-4-yl)-8-oxatricyclo[3.2.1.02,4]octane-2-carboxamide]: the IC50 is above 30 µM and the Emax was 35%.
Consider `COc1ccc(NC(=O)[C@]23C[C@@]2(c2cn(C)nc2C(F)(F)F)[C@H]2O[C@@H]3C[C@@H]2O)cc1C(F)(F)F` (racemic) [Example 60, rac-(1R,2R,4S,5R,6S)-6-hydroxy-N-(4-methoxy-3-(trifluoromethyl)phenyl)-4-(1-methyl-3-(trifluoromethyl)-1H-pyrazol-4-yl)-8-oxatricyclo[3.2.1.02,4]octane-2-carboxamide], for which the IC50 is above 30 µM and the Emax turned out to be 27%.
In the case of `COc1cc(NC(=O)[C@]23C[C@@]2(c2cn(C)nc2C(F)(F)F)[C@H]2O[C@@H]3C[C@@H]2O)cc(C(F)(F)F)c1` (racemic) [Example 61, rac-(1R,2R,4S,5R,6S)-6-hydroxy-N-(3-methoxy-5-(trifluoromethyl)phenyl)-4-(1-methyl-3-(trifluoromethyl)-1H-pyrazol-4-yl)-8-oxatricyclo[3.2.1.02,4]octane-2-carboxamide], the IC50 is above 30 µM and the Emax was determined as 29%.
For the molecule `COc1ccc(C(F)(F)F)cc1NC(=O)[C@]12C[C@@]1(c1cn(C)nc1C(F)(F)F)[C@H]1O[C@@H]2C[C@@H]1O` (racemic) [Example 62, rac-(1R,2R,4S,5R,6S)-6-hydroxy-N-(2-methoxy-5-(trifluoromethyl)phenyl)-4-(1-methyl-3-(trifluoromethyl)-1H-pyrazol-4-yl)-8-oxatricyclo[3.2.1.02,4]octane-2-carboxamide], the IC50 is above 30 µM and the Emax is 26%.
For the molecule `Cn1cc([C@@]23C[C@]2(C(=O)Nc2cc(C(F)(F)F)cc(C(F)(F)F)c2)[C@H]2C[C@H](O)[C@@H]3O2)c(C(F)(F)F)n1` (racemic) [Example 63, rac-(1R,2R,4S,5R,6S)—N-(3,5-bis(trifluoromethyl)phenyl)-6-hydroxy-4-(1-methyl-3-(trifluoromethyl)-1H-pyrazol-4-yl)-8-oxatricyclo[3.2.1.02,4]octane-2-carboxamide], it took 29 µM to reach half-maximal inhibition (IC50) and the Emax came out at 56%.
As for `Cn1cc([C@@]23C[C@]2(C(=O)Nc2ccc(N4CCOCC4)c(C(F)(F)F)c2)[C@H]2C[C@H](O)[C@@H]3O2)c(C(F)(F)F)n1` (racemic) [Example 64, rac-(1R,2R,4S,5R,6S)-6-hydroxy-4-(1-methyl-3-(trifluoromethyl)-1H-pyrazol-4-yl)-N-(4-morpholino-3-(trifluoromethyl)phenyl)-8-oxatricyclo[3.2.1.02,4]octane-2-carboxamide], the IC50 was above 30 µM and the Emax was found to be 28%.
Turning to `CCOc1ccc(NC(=O)[C@]23C[C@@]2(c2cn(C)nc2C(F)(F)F)[C@H]2O[C@@H]3C[C@@H]2O)cc1C(F)(F)F` (racemic) [Example 65, rac-(1R,2R,4S,5R,6S)—N-(4-ethoxy-3-(trifluoromethyl)phenyl)-6-hydroxy-4-(1-methyl-3-(trifluoromethyl)-1H-pyrazol-4-yl)-8-oxatricyclo[3.2.1.02,4]octane-2-carboxamide], half-maximal inhibition (IC50) was put at 12 µM and the Emax came to 84%.
Turning to `O=C(Nc1cccc(C(F)(F)F)c1)[C@]12C[C@@]1(c1ccnc(C(F)(F)F)c1)[C@H]1O[C@@H]2C[C@@H]1O` (racemic) [Example 66, rac-(1R,2R,4S,5R,6S)-6-hydroxy-N-(3-(trifluoromethyl)phenyl)-4-(2-(trifluoromethyl)pyridin-4-yl)-8-oxatricyclo[3.2.1.02,4]octane-2-carboxamide], the IC50 was determined as 24 µM and the Emax came out at 62%.
In the case of `O=C(Nc1cccc(C(F)(F)F)c1)[C@]12C[C@@]1(c1cccc(C(F)(F)F)c1)[C@H]1O[C@@H]2C[C@@H]1O` (racemic) [Example 67, rac-(1R,2R,4S,5R,6S)-6-hydroxy-N,4-bis(3-(trifluoromethyl)phenyl)-8-oxatricyclo[3.2.1.02,4]octane-2-carboxamide], the IC50 is 27 µM and the Emax was 54%.
For `Cn1cc([C@@]23C[C@]2(C(=O)Nc2ccc(C#N)c(C(F)(F)F)c2)[C@H]2C[C@H](O)[C@@H]3O2)c(C(F)(F)F)n1` (racemic) [Example 68, rac-(1R,2R,4S,5R,6S)—N-(4-cyano-3-(trifluoromethyl)phenyl)-6-hydroxy-4-(1-methyl-3-(trifluoromethyl)-1H-pyrazol-4-yl)-8-oxatricyclo[3.2.1.02,4]octane-2-carboxamide], the IC50 was above 30 µM and the Emax turned out to be 50%.
With `Cn1cc([C@@]23C[C@]2(C(=O)Nc2cc(C(F)(F)F)ccc2C#N)[C@H]2C[C@H](O)[C@@H]3O2)c(C(F)(F)F)n1` (racemic) [Example 69, rac-(1R,2R,4S,5R,6S)—N-(2-cyano-5-(trifluoromethyl)phenyl)-6-hydroxy-4-(1-methyl-3-(trifluoromethyl)-1H-pyrazol-4-yl)-8-oxatricyclo[3.2.1.02,4]octane-2-carboxamide], the IC50 was 1.8 µM and the Emax came out at 88%.
For `COc1cc([C@@]23C[C@]2(C(=O)Nc2ccc(Cl)c(C(F)(F)F)c2)[C@H]2C[C@H](O)[C@@H]3O2)ccn1` (racemic) [Example 70, rac-(1R,2R,4S,5R,6S)—N-(4-chloro-3-(trifluoromethyl)phenyl)-6-hydroxy-4-(2-methoxypyridin-4-yl)-8-oxatricyclo[3.2.1.02,4]octane-2-carboxamide], the IC50 is above 30 µM and the Emax was 39%.
The corresponding values for `COc1cc([C@@]23C[C@]2(C(=O)Nc2cc(Cl)cc(C(F)(F)F)c2)[C@H]2C[C@H](O)[C@@H]3O2)ccn1` (racemic) [Example 71, rac-(1R,2R,4S,5R,6S)—N-(3-chloro-5-(trifluoromethyl)phenyl)-6-hydroxy-4-(2-methoxypyridin-4-yl)-8-oxatricyclo[3.2.1.02,4]octane-2-carboxamide] are above 30 µM and 9%.
